{"source": "patent US20250090565A1", "about": "“Compositions and Methods for Treating Bleeding and Bleeding Disorders” (YewSavin, Inc., priority 2021, published 2025)", "key": {"[1]": {"test_system": "ex vivo Hemophilia A human blood", "experiment": "Ca+2ACT whole blood coagulation time test, Hemophilia A human blood", "type": "biochemical", "from_the_text": "(§1) While there are standardized tests such as Activated Partial Thromboplastin Time (“aPTT”) and Partial Thromboplastin Time (“PPT”) that measure blood clotting times (i.e., coagulation times), none of these tests are amenable to testing a small molecule drug, mainly due to the fact that the clotting agents added in these tests completely overcome the effect of the drug. A Calcium +2 ion Activated Coagulation Time test (“Ca+2ACT test”) was developed for measuring coagulation times that is devoid of the activators, thereby allowing drug candidates to be tested and verify their effects. The results described below use whole blood clotting assay and measure the coagulation of blood (i.e., blood's ability to clot), specifically, how much time is required for the clotting.\nIn this study, calcium chloride (“CaCl2”), a standard coagulating compound, is used as a control to compare the efficacy of various test samples. DMA is used as vehicle for various test samples. In a first study, a freshly prepared 5 μl test sample in DMA is added to a 100 μl blood specimen and then incubated in incubation slot of KC1 Delta machine Correlated Stago-Startmax for 37° C. for 3 min. For the control sample, 50 μl of CaCl2 solution is added, and timer started, to a 100 μl blood specimen to provide a baseline against the test sample. A stop watch, and automated electronic machine display, is used to measure the coagulation time in connection with an electronic signal provided the testing machine. Fresh citrated blood specimen from six healthy volunteers and six hemophilia patients, with initial standard citrate concentration in the collected blood of 3.5%, and “in cuvette” calcium +2 activation (by addition of CaCl2 solution) was obtained.\nIn this study, the effect of drug is measured by coagulation time of blood using the Ca+2ACT test, in presence of variable concentration of the drug in the test sample. The efficacy tests used 5 microliter of 40 mg/mL solution added to 155 microliter final volume in the clotting cuvette, corresponding to […] of the clotting mixture. For the dose dependence studies, we examined three persons. The twelve concentrations range chosen is 5 microliter of 0.05 mg/mL to 40 mg/mL, the vehicle being zero point concentration. This corresponds to mimimum concentration in the study of 1.66 microgram/mL or 1.66 ppm of the drug, not withstanding Vehicle Control of zero. […] FIG. 45 illustrates coagulation time versus concentration for the candidate molecule 1 for blood specimens from a second patient. FIG. 46 illustrates coagulation time versus concentration for the candidate molecule 1 for blood specimens from a third patient.\nAs discussed above, the effect is measured by coagulation time of blood using the Ca+2ACT test, in presence of variable concentration of the drug. Initial efficacy tests used 5 microliters of 40 mg/mL solution added to 155 microliter final volume in the clotting cuvette, corresponding to 1.29 mg/1000 mg of the clotting mixture. More recent tests used 10E-2 to 10E-22 as concentration range with 1E-2 interval. Samples were tested no later than eight hours after collection, and preferably, no later than four hours after collection. Often times, with very low and zero concentrations of clotting agents, although the instrument recorded a clotting time, the samples were fluid and partially coagulated at best. However, good fit was obtained at 1E-18 and good statistical difference was obtained at 1E-16, with significant statistical p-values at 10E-8 and higher concentrations, a very good range for drug design. […] The dose dependence study was performed using NDA solvent, and water in case of Eloctate™."}, "[2]": {"test_system": "Factor VIII Deficient Mice", "experiment": "Capillary clotting time in Factor VIII deficient mice", "type": "in vivo", "details": "FVIII deficient mice; HF-2021a oral once daily for seven days; FVIII intravenous"}, "[3]": {"test_system": "Factor VIII Deficient Mice", "experiment": "Fibrin (fibrinogen) content of blood of Factor VIII deficient mice", "type": "in vivo", "details": "FVIII deficient mice, blood taken at end of experiment", "description": "(§2) The purpose of this experiment was to evaluate the effectiveness of chalcones on tail bleeding time in mice. […] A distal 10 mm segment of each mouse's tail was amputated with a scalpel and the remaining tail stump was immediately immersed in a 50 mL Falcon tube containing isotonic saline pre-warmed in a water bath to 37° C. Each mouse was allowed to bleed freely for 20 minutes even if bleeding ceased, in order to detect any re-bleeding. Bleeding time was determined using a stopwatch. At the end of the 20 minutes, the experiment was terminated to avoid lethality. All animals were then bled additionally to obtain a sufficient amount of blood for determining fibrinogen content. Organs were collected, weighed and preserved for future assays."}, "[4]": {"test_system": "ex vivo healthy human blood", "experiment": "Ca+2ACT whole blood coagulation time test, healthy human blood", "type": "biochemical", "details": "1 mg/ml, healthy blood specimens; vehicle control 208.87 seconds", "from_the_text": "as §1\nIn this study, calcium chloride (“CaCl2”), a standard coagulating compound, is used as a control to compare the efficacy of various test samples. DMA is used as vehicle for various test samples. In a first study, a freshly prepared 5 μl test sample in DMA is added to a 100 μl blood specimen and then incubated in incubation slot of KC1 Delta machine Correlated Stago-Startmax for 37° C. for 3 min. For the control sample, 50 μl of CaCl2 solution is added, and timer started, to a 100 μl blood specimen to provide a baseline against the test sample. […]"}, "[5]": {"test_system": "Factor VIII Deficient Mice", "experiment": "Tail bleeding assay in FVIII-KO mice", "type": "in vivo", "description": "as §2"}, "[6]": {"test_system": "heparinized rabbit blood", "experiment": "Heparinized clotting test (in vitro)", "type": "biochemical", "details": "rabbit blood 200 μL + heparin 1.25 IU, varying concentrations in DMSO (FIG. 7)", "description": "The purpose of this experiment was to deduce a potential mechanism of action for chalcones in decreasing blood clotting and bleeding time. First, rabbit blood (200 μL) was added to the anticoagulant drug heparin (1.25 IU) in Eppendorf Tubes®. […] In untreated blood that is still inside a human or an animal, heparan sulfate that is found on cellular surfaces plays an equivalent role to heparin by forming a heparan-antithrombin complex and activating antithrombin."}, "[7]": {"test_system": "FVIII-deficient plasma", "experiment": "Thrombin generation assay (TGA) in FVIII-deficient plasma", "type": "biochemical, human", "from_the_text": "Thrombin generation is regarded as a significant indicator of the efficiency of blood clotting. Therefore, the thrombin generation assay (“TGA”) can be used as a proxy to estimate overall blood clotting efficiency of factor proteins and others agents from observing the clotting of plasma samples. The thrombin generation experiments were run using a microtiter plate fluorometer. Solvent systems consisting of a buffer, a fluorogenic substrate, and eight candidate compounds in inert solvents were added to pre-warmed citrated FVIII-deficient plasma along with tissue factor. The clotting reactions in the plasma-compound mixtures were initiated by adding calcium chloride solution to all the samples, and the fluorescence measurements recorded by the fluorimeter were compared against negative control (FVIII-deficient plasma without compounds or solvent system), vehicle control (FVIII-deficient plasma with solvent system only), and positive control (FVIII-deficient plasma mixed with regular plasma) reference measurements.\nEach of the eight candidate compounds was tested via the TGA at three different concentrations."}, "[8]": {"test_system": "Wistar rats", "experiment": "Ex vivo capillary clotting assay in Wistar rats", "details": "ex vivo oral, compared with chromatography fractions (FIG. 3)", "from_the_text": "During the bioassay-guided fractionation process, blood clotting time was used as a screen for active compounds, and a particular class of compounds known as chalcones was discovered to induce blood coagulation. FIG. 3 illustrates a sample result from an ex vivo capillary clotting assay in Wistar rats in accordance with various embodiments of the invention as described in further detail below."}, "[9]": {"experiment": "Bodyweight of Factor VIII deficient mice", "type": "in vivo", "details": "FVIII deficient mice, mean (spread)"}, "[10]": {"test_system": "normal plasma", "experiment": "Thrombin generation assay (TGA) in normal plasma", "type": "biochemical, human"}}, "note": "“Also recorded” adds a separate entry of the source.", "data": [{"compound": "COc1cc(O)c(C(=O)C=Cc2ccc(O)cc2)c(OC)c1OC", "note": "[HF-2021a, 1-(6-Hydroxy-2,3,4-trimethoxyphenyl)-3-(4-hydroxy-phenyl)prop-2-en-1-one]", "values": [{"measurement": "mean clotting time", "setting": "[1]; 1 mg/mL, Hemophilia A blood specimens, vehicle control 228.92 seconds", "result": 64.92, "unit": "s"}, {"measurement": "coagulation time versus concentration", "setting": "[1]; blood specimens of three patients, twelve concentrations (FIG. 44-46)", "result": "clear dependency"}, {"measurement": "Capillary Clotting Time (Seconds)", "setting": "[2]", "result": "44.6 (13.2) Seconds"}, {"measurement": "Fibrin content (mg/dL)", "setting": "[3]", "result": "281.2 (44.1) mg/dL"}, {"measurement": "mean clotting time", "setting": "[4]", "result": 74.12, "unit": "s"}, {"measurement": "Optical Density", "setting": "[5]; FVIII deficient mice, tail bleeding experiment", "result": "0.5 (0.1)"}, {"measurement": "tail bleeding time (in words)", "setting": "[5]; FVIII-KO mice, repeated oral administrations, versus standard FVIII therapy (FIG. 4)", "result": "outperforming the standard FVIII therapy; also recorded: significantly improved"}, {"measurement": "Survival Rate", "setting": "[5]; after 48 hours", "result": "3/5 after"}, {"measurement": "Bleeding Time (Seconds)", "setting": "[5]; tail amputation 10 mm, saline 37° C., HF-2021a oral once daily for seven days, FVIII intravenous", "result": "41.8 (9.7) Seconds"}, {"measurement": "blood clotting time versus concentration", "setting": "[6]", "result": "dose dependence relationship was observed"}, {"measurement": "thrombin generation ETP dependence on concentration", "setting": "[7]; 0.01 mg/ml, 0.1 mg/ml, and 0.4 mg/ml in FVIII-deficient plasma", "result": "observed dose dependence"}, {"measurement": "effect on thrombin concentration and ETP compared with HEMLIBRA", "setting": "[7]; 0.1 mg/ml versus any of the concentrations of HEMLIBRA (FIG. 28, 29)", "result": "comparable effects"}, {"measurement": "thrombin response compared with FVIII-deficient plasma containing 10% of normal FVIII", "setting": "[7]; 0.4 mg/ml (FIG. 18, 19)", "result": "superior to that of 10% of normal FVIII activity"}, {"measurement": "effect on thrombin concentration and ETP compared with HEMLIBRA", "setting": "[7]; 0.4 mg/ml versus highest tested HEMLIBRA concentration 75 μg/ml (FIG. 28, 29)", "result": "slightly larger effect"}, {"measurement": "thrombin concentration and ETP, combined with ELOCTATE", "setting": "[7]; all tested concentrations, plasma of a patient who had taken ELOCTATE (FIG. 34, 35)", "result": "greater thrombin concentrations and ETPs than ELOCTATE® by itself"}, {"measurement": "effect on capillary clotting time", "setting": "[8]", "result": "nearly identical to that of the chromatography fractions"}, {"measurement": "Bodyweight (Day 0)", "setting": "[9]; Day 0 (baseline)", "result": "17.4 (1.4)"}, {"measurement": "Bodyweight (Day 7)", "setting": "[9]; Day 7", "result": "18.8 (1.1)"}, {"measurement": "thrombin generation curves versus concentration", "setting": "[10]; normal plasma (FIG. 20)", "result": "dose dependent response"}, {"measurement": "thrombin generation ETP versus concentration", "setting": "[10]; normal plasma (FIG. 21)", "result": "dose dependent response is also observed"}]}]}
